“Also recorded” adds a separate entry of the source. Read-outs that look alike come from different tables or passages of the source.
Legend:
alpha-cells = assay: alpha-cell replication in dissociated rat islet cells (glucagon/ki-67 imaging); format: cell-based; settings: compound for 48 hours
Protocol: (§1) Rat islets were isolated and plated as previously described. In brief, rat islets were disassociated using 0.25% trypsin to obtain single cell suspension with occasional clusters of 2-3 cells. These cells were then plated in a 96-well format at a density of 80 k cells/well. The wells were pre-treated with conditioned media produced by the rat bladder carcinoma cell line 804G. After 48-hours, the cells were treated with compound at the indicated concentration or vehicle alone for 48 hours. The cells were then fixed and stained as previously described for the beta-cell marker PDX-1 and the replication marker ki-67. The beta-cell replication rate (the percentage of PDX-1^+ Cells that co-expressed ki-67) was quantified via automated imaging acquisition and analysis using a Cellomic ArrayScan. Each experimental was performed in replicas of four. p-values indicate a 2-tailed T-Test.
(§2) To quantify beta-cell replication rate, cells were identified as beta-cells if the contained both nuclear PDX-1 expression and cytoplasmic insulin staining. Replicating beta-cells were identified by the co-staining for ki-67. Alpha-cell replication was determined by determining the fraction of alpha-cells that co-expressed ki67. An alpha-cell was defined by the presence of cytoplasmic glucagon staining and the absence of nuclear PDX-1 staining. The fraction of dividing alpha-cells was determined by the proportion of alpha cells that co-expressed ki-67.

beta-cells = assay: beta-cell replication in dissociated rat islet cells (PDX-1/ki-67 imaging); format: cell-based; settings: compound for 48 hours, relative to vehicle/DMSO control
Protocol: as §1, §2

GLP-1R signaling = assay: glucose tolerance via GLP-1R signaling; settings: FIGS. 15A-15C
isolated rat islets = assay: in vitro islet insulin secretion assay, rat islets; settings: for islet insulin secretion: isolated rat islets
[1] = test system: primary intestinal crypt culture; assay: endogenous GLP-1 secretion in primary intestinal crypt culture; settings: compared to control
wild-type mice [2] = assay: glucose tolerance in wild-type mice; format: in vivo, mouse
diabetic DB mice = assay: glucose tolerance in diabetic DB mice; format: in vivo, mouse; settings: for glucose tolerance: compound by itself
recombinant PDE5 = recombinant PDE5 (Homo sapiens, UniProt O76074); settings: in vitro selectivity assay using recombinant PDE
Text: Rows list the PDE inhibitors. Columns list the recombinant human PDE enzymes.

wild-type mice [3] = assay: plasma GLP-1 levels in vivo; settings: 30 minutes after treatment, 0.3 mg/kg Tadalafil, 0.25 mg/kg Dipyridamole, 0.45 mg/kg Vardenafil
human islets = assay: in vitro islet insulin secretion assay, human islets; format: cell-based
[4] = plasma insulin levels in vivo after intraperitoneal glucose; settings: 30 minutes after treatment and intraperitoneal (IP) delivery of glucose, compared to DMSO
[5] = test system: diet-induced obesity (DIO) mice; assay: glucose tolerance in diet-induced obesity (DIO) mice; format: in vivo; settings: diet-induced obesity (DIO) mouse model of human diabetes
[6] = co-administered with DPP-4 inhibitor Sitagliptin, wild-type mice (FIG. 11), Tadalafil data not shown
[7] = wild-type mice, compound by itself
[8] = wild-type mice, in combination with Exendin-4

| Compound | alpha-cell replication (fraction of alpha-cells that co-expressed ki67) (alpha-cells) | beta-cell replication (percentage of PDX-1+ cells that co-expressed ki-67) (beta-cells) | glucose tolerance via GLP-1R signaling (GLP-1R signaling) | islet insulin secretion (isolated rat islets) | glucose tolerance / blood glucose levels (wild-type mice [2]; [6]) | glucose tolerance (wild-type mice [2]; [7]) | glucose tolerance / blood glucose levels (wild-type mice [2]; [8]) | plasma GLP-1 levels (wild-type mice [3]) | other results |
| --- | --- | --- | --- | --- | --- | --- | --- | --- | --- |
| OCCN(CCO)c1nc(N2CCCCC2)c2nc(N(CCO)CCO)nc(N3CCCCC3)c2n1 [Dipyridamole, 2,6-bis-(diethanolamino)-4,8-dipiperidino-(5,4-d)-pyrimidine] | does not; also recorded: did not | enhanced beta-cell replication; also recorded: double replication effect | improve glucose tolerance via GLP-1R signaling | significantly enhanced insulin secretion | acts in concert with dipeptidyl peptidase-4 (DPP-4) inhibitor Sitagliptin to improve glucose tolerance; also recorded: act in concert with Sitagliptin to improve glucose tolerance and lower blood glucose levels | enhances glucose tolerance | enhances glucose tolerance; also recorded: acts additively with Exendin-4 to lower blood glucose levels | significantly increase plasma GLP-1 levels | beta-cell replication (percentage of PDX-1+ cells that co-expressed ki-67) (beta-cells; listed as Dioyridamole): enhanced beta-cell replication; islet insulin secretion (isolated rat islets; listed as dipyridamole): enhances insulin secretion; effect of Exendin-4 on glucose-stimulated insulin secretion (isolated rat islets; rat islets, in combination with Exendin-4): enhances the effect of Exendin-4 on glucose-stimulated insulin secretion; endogenous GLP-1 secretion [1]: at least about twice; glucose tolerance (wild-type mice [2]; wild-type mice, compound by itself, listed as dipyridamole): improves glucose tolerance; glucose tolerance / blood glucose levels (wild-type mice [2]; wild-type mice, in combination with Exendin-4, listed as dipyridamole): enhances glucose tolerance; glucose tolerance (wild-type mice [2]; wild-type mice, oral administration): improves glucose tolerance; glucose tolerance (diabetic DB mice): enhances glucose tolerance; glucose tolerance (diabetic DB mice; listed as dipyridamole): improves glucose tolerance; glucose tolerance / blood glucose levels (diabetic DB mice; in combination with Exendin-4): enhances glucose tolerance; also recorded: acts additively with Exendin-4 to lower blood glucose levels; glucose tolerance / blood glucose levels (diabetic DB mice; in combination with Exendin-4, listed as dipyridamole): enhances glucose tolerance; inhibition of PDE5 (inhibitor class) (recombinant PDE5): effective inhibitor (the inhibitor exhibits at least 50% inhibition of enzymatic activity in an in vitro selectivity assay using a recombinant PDE); islet insulin secretion (human islets): significantly enhanced insulin secretion; effect of Exendin-4 on glucose-stimulated insulin secretion (human islets; in combination with Exendin-4): enhances the effect of Exendin-4 on glucose-stimulated insulin secretion; islet insulin secretion (human islets; listed as dipyridamole): enhances insulin secretion |
| CN(C(=O)CCCOc1ccc2[nH]c(=O)ccc2c1)C1CCCCC1 [Cilostamide] | enhanced alpha-cell replication | enhanced beta-cell replication | – | – | – | – | – | – | – |
| CN1CC(=O)N2[C@H](c3ccc4c(c3)OCO4)c3[nH]c4ccccc4c3C[C@@H]2C1=O [Tadalafil, (6R-trans)-6-(1,3-benzodioxol-5-yl)-2,3,6,7,12,12a-hexahydro-2-methyl-pyrazino[1′,2′:1,6]pyrido[3,4-b]indole-1,4-dione] | – | did not increase beta-cell replication | improve glucose tolerance via GLP-1R signaling | do not enhance islet insulin secretion; also recorded: Neither Tadalafil (FIG. 4A) nor Vardenafil (FIG. 4B) significantly enhanced insulin secretion | act in concert with Sitagliptin to improve glucose tolerance and lower blood glucose levels | improves glucose tolerance | acts additively with Exendin-4 to lower glucose levels | significantly increase plasma GLP-1 levels | plasma insulin levels [4]: increased plasma insulin levels; also recorded: significantly increase plasma insulin levels; glucose tolerance [5]: improves glucose tolerance |
| COc1cc2c(cc1OC)-c1c/c(=N\c3c(C)cc(C)cc3C)n(C)c(=O)n1CC2 [Trequinsin] | enhanced alpha-cell replication | enhanced beta-cell replication | – | – | – | – | – | – | – |
| COc1cc(-c2ccc(=O)[nH]n2)ccc1OC(F)F [Zardaverine, 6-[4-(Difluoromethoxy)-3-methoxyphenyl]-3(2H)-pyridazinone] | enhanced alpha-cell replication | enhanced beta-cell replication | – | – | – | – | – | – | – |
